Experiment in all cases: ≥ marks a high value that may be exact or a test limit, other limits are often not marked, values filed in µg/mL are converted to µM
Experiment [1] has as its system Acinetobacter baumannii ATCC 19606.
Experiment [2] has as its system Candida albicans ATCC 90028.
The subject of experiment [3] is Candida parapsilosis ATCC 22019.
In experiment [4] the test system is Enterococcus faecalis ATCC 29212.
Experiment [5] deals with Escherichia coli ATCC 25922.
Experiment [6] relates to Escherichia coli ML-35p.
Experiment [7] concerns Klebsiella pneumoniae ATCC 13883.
The test system of experiment [8] is Listeria ivanovii.
The test system of experiment [9] is Pseudomonas aeruginosa ATCC 27853.
In experiment [10] the test system is Saccharomyces cerevisiae.
Experiment [11] relates to Salmonella enterica subsp. enterica serovar Enteritidis.
In experiment [12] the test system is Staphylococcus aureus ATCC 25923.
The test system of experiment [13] is Staphylococcus aureus ST1065.
Experiment [14] concerns Streptococcus pyogenes ATCC 19615.
Experiment [15] relates to Actinomyces naeslundii ATCC 12104.
In experiment [16] the test system is Actinomyces viscosus ATCC 15987.
The test system of experiment [17] is Lacticaseibacillus casei ATCC 393.
Experiment [18] relates to Lactobacillus acidophilus ATCC 14931.
Experiment [19] relates to Limosilactobacillus fermentum ATCC 9338.
In experiment [20] the test system is Streptococcus gordonii DL1.
In experiment [21] the test system is Streptococcus mutans UA159.
Experiment [22] relates to Streptococcus sanguinis ATCC 10556.
Experiment [23] concerns Escherichia coli 1.
In experiment [24] the test system is Escherichia coli C600.
Experiment [25] relates to Escherichia coli.
Experiment [26] relates to Klebsiella pneumoniae 1.
Experiment [27] relates to Klebsiella pneumoniae 2.
Experiment [28] has as its system Pseudomonas aeruginosa 1.
Experiment [29] concerns Pseudomonas aeruginosa 2.
Experiment [30] relates to Pseudomonas aeruginosa PAO1.
The subject of experiment [31] is Staphylococcus aureus 209P.
In experiment [32] the test system is Staphylococcus aureus ATCC 33591.
Experiment [33] concerns Acinetobacter baumannii 1.
Experiment [34] concerns Acinetobacter baumannii.
Experiment [35] has as its system Aspicilia cinerea.
Experiment [36] relates to Bacillus cereus.
Experiment [37] deals with Bacillus subtilis.
The test system of experiment [38] is Candida albicans 1.
Experiment [39] has as its system Candida albicans.
Experiment [40] has as its system Candida glabrata.
The test system of experiment [41] is Enterococcus faecium.
The subject of experiment [42] is Klebsiella pneumoniae.
For experiment [43], the system named is Proteus mirabilis.
Experiment [44] deals with Proteus vulgaris.
For experiment [45], the system named is Pseudomonas aeruginosa.
The test system of experiment [46] is Staphylococcus aureus 1.
Experiment [47] concerns Staphylococcus aureus.
Experiment [48] deals with Staphylococcus epidermidis.
Experiment [49] relates to Vibrio anguillarum.
Experiment [50] deals with Vibrio cholerae.
Experiment [51] has as its system Vibrio parahaemolyticus ATCC 17802.
The subject of experiment [52] is Vibrio parahaemolyticus.
Experiment [53] relates to Vibrio splendidus.

From DBAASP come the findings set out here.

Molecules are shown by their SMILES. ≈ marks a conversion by molar mass, not a printed value. Where “and” joins values, the source holds several entries; their conditions need not be identical. Equal entries are not always repeated.

For the compound `CC[C@H](C)[C@H](NC(=O)CNC(=O)[C@H](CO)NC(=O)[C@H](C)NC(=O)[C@@H](N)Cc1ccccc1)C(=O)N[C@@H](C)C(=O)NCC(=O)N[C@@H](CCSC)C(=O)N[C@@H](C)C(=O)NCC(=O)N[C@@H](CCCCN)C(=O)N[C@@H](CC(C)C)C(=O)N[C@@H](Cc1ccccc1)C(N)=O` [FASGIAGMAGKLF], the MIC in experiment [1] is over 200 µM; in experiment [2] it was at least 200 µM; in [3], at least 200 µM; in [4] it was over 200 µM; in [5], over 200 µM; in experiment [6], at least 200 µM. Besides, the MIC in experiment [7] is at least 200 µM; in [8], at least 200 µM; in experiment [9], over 200 µM; in [10], at least 200 µM; in experiment [11], at least 200 µM; in [12], over 200 µM. Moreover, the MIC in experiment [13] and in experiment [14] was at least 200 µM in each case.
Take `CC(C)C[C@H](NC(=O)CN)C(=O)N[C@@H](CC(C)C)C(=O)N[C@@H](Cc1c[nH]c2ccccc12)C(=O)N[C@@H](Cc1cnc[nH]1)C(=O)N[C@@H](CC(C)C)C(=O)N[C@@H](CC(C)C)C(=O)N[C@@H](Cc1cnc[nH]1)C(=O)N[C@@H](Cc1cnc[nH]1)C(=O)N[C@@H](CC(C)C)C(=O)N[C@@H](CC(C)C)C(=O)N[C@@H](Cc1cnc[nH]1)C(=O)N[C@@H](CC(C)C)C(=O)N[C@@H](CC(C)C)C(=O)N[C@@H](Cc1cnc[nH]1)C(=O)N[C@@H](Cc1cnc[nH]1)C(N)=O` [GLLWHLLHHLLHLLHH]: the minimal inhibitory concentration (MIC) was at least 257 µM in [15]; at least 257 µM in experiment [16]; 4.02 µM (≈ 8 µg/mL) in experiment [17]; 4.02 µM (≈ 8 µg/mL) in experiment [18]; 16.1 µM (≈ 32 µg/mL) in [19]; at least 64.3 µM in experiment [20]. Also, the minimal inhibitory concentration (MIC) in [21] was at least 257 µM; in experiment [22], at least 64.3 µM.
For `CC(C)[C@@H]1NC(=O)CNC(=O)[C@H](CCCN=C(N)N)NC(=O)[C@H](C(C)C)NC(=O)[C@@H]2CSSC[C@H](NC1=O)C(=O)N[C@@H](Cc1ccc(O)cc1)C(=O)N[C@@H](CCCN=C(N)N)C(=O)N[C@@H](CCCN=C(N)N)C(=O)N[C@H](C(=O)N[C@@H](Cc1c[nH]c3ccccc13)C(=O)O)CSSC[C@H](NC(=O)[C@H](Cc1c[nH]c3ccccc13)NC(=O)[C@@H](N)CCCN=C(N)N)C(=O)N[C@@H](C(C)C)C(=O)N[C@@H](Cc1ccc(O)cc1)C(=O)N[C@@H](C)C(=O)N2` [RWCVYACVRGVCYRRCW], the MIC in experiment [23] was 1 µM and 0.5 µM; in [24], 1.56 µM (≈ 3.39 µg/mL); in experiment [25], 0.5 µM and 1 µM; in experiment [26], 1 µM and 2 µM; in [27], 2 µM and 4 µM; in [28] it was 2 µM (≈ 4.35 µg/mL). Besides, the MIC in experiment [29] turned out to be 2 µM (≈ 4.35 µg/mL); in [30] it was 3.13 µM (≈ 6.81 µg/mL); in experiment [31] it was 3.13 µM (≈ 6.81 µg/mL); in experiment [32], 0.12 µM (≈ 0.261 µg/mL).
As to `CC[C@H](C)[C@H](NC(=O)[C@H](CCCCN)NC(=O)[C@H](CC(C)C)NC(=O)[C@H](C)NC(=O)CNC(=O)[C@H](CC(N)=O)NC(=O)[C@H](CC(C)C)NC(=O)[C@@H](NC(=O)[C@H](CCCCN)NC(=O)[C@H](CCCCN)NC(=O)[C@H](Cc1c[nH]c2ccccc12)NC(=O)[C@H](Cc1ccccc1)NC(=O)[C@H](CCCCN)NC(=O)[C@H](CCCN=C(N)N)NC(=O)[C@H](CCCN=C(N)N)NC(=O)[C@@H](N)[C@@H](C)O)C(C)C)C(=O)N[C@@H](C)C(=O)N1CCC[C@H]1C(=O)N[C@@H](Cc1ccccc1)C(=O)N[C@@H](CC(C)C)C(=O)N[C@@H](CC(C)C)C(=O)NCC(=O)O` [TRRKFWKKVLNGALKIAPFLLG], the MIC was 7.33 µM (≈ 18.8 µg/mL) in [33]; at least 78.2 µM in [34]; 7.33 µM (≈ 18.8 µg/mL) in experiment [35]; 7.33 µM (≈ 18.8 µg/mL) in experiment [36]; 0.919 µM (≈ 2.35 µg/mL) in experiment [37]; 5.19 µM (≈ 13.3 µg/mL) in experiment [38]. Besides, the MIC in [39] was 14.7 µM (≈ 37.5 µg/mL); in [40], 14.7 µM (≈ 37.5 µg/mL); in experiment [41], 7.33 µM (≈ 18.8 µg/mL); in experiment [23], 7.33 µM (≈ 18.8 µg/mL); in experiment [26], at least 78.2 µM; in experiment [42], 5.19 µM (≈ 13.3 µg/mL). Further, the MIC in experiment [43] is 1.83 µM (≈ 4.69 µg/mL); in experiment [44], at least 78.2 µM; in [9], 7.33 µM (≈ 18.8 µg/mL); in experiment [45] it was 5.19 µM (≈ 13.3 µg/mL); in experiment [46] it was 5.19 µM (≈ 13.3 µg/mL); in experiment [12], 14.7 µM (≈ 37.5 µg/mL). For the same compound, the MIC in [47] was 14.7 µM (≈ 37.5 µg/mL); in [48], 7.33 µM (≈ 18.8 µg/mL); in [49], 1.83 µM (≈ 4.69 µg/mL); in experiment [50] it was 7.33 µM (≈ 18.8 µg/mL); in experiment [51] it was 1.83 µM (≈ 4.69 µg/mL); in experiment [52], 1.83 µM (≈ 4.69 µg/mL). The MIC in experiment [53] was 1.83 µM (≈ 4.69 µg/mL).

In general, MIC refers to the lowest concentration that inhibits growth of the organism. A low value points to a more susceptible organism.
